{"source": "patent US12508266B2", "about": "(priority 2010, dated 2025)", "key": {"[1]": {"tested_on": "Adenovirus type 165089/Chicago", "type": "cell-based, Adenovirus (AV-1) type 1"}, "[2]": {"tested_on": "Adenovirus type 165089/Chicago", "type": "cell-based, Adenovirus (AV-1) type 1", "remark": "listed apart in the source"}, "[3]": {"tested_on": "Dengue 2 New Guinea C", "type": "cell-based, Dengue virus 2"}, "[4]": {"tested_on": "Dengue 2 New Guinea C", "type": "cell-based, Dengue virus 2", "remark": "listed apart in the source"}, "[5]": {"tested_on": "Influenza A H1N1 CA/04/2009 (Pandemic H1N1)", "type": "cell-based"}, "[6]": {"tested_on": "Influenza A H1N1 CA/04/2009 (Pandemic H1N1)", "type": "cell-based", "remark": "listed apart in the source"}, "[7]": {"tested_on": "Influenza A H3N2 Brisbane/10/2007", "type": "cell-based"}, "[8]": {"tested_on": "Influenza A H3N2 Brisbane/10/2007", "type": "cell-based", "remark": "listed apart in the source"}, "[9]": {"tested_on": "Influenza A H5N1 VN/1203/2004 Hybrid (on H1N1 backbone)", "type": "cell-based"}, "[10]": {"tested_on": "Influenza A H5N1 VN/1203/2004 Hybrid (on H1N1 backbone)", "type": "cell-based", "remark": "listed apart in the source"}, "[11]": {"tested_on": "Influenza B Florida", "type": "cell-based"}, "[12]": {"tested_on": "Influenza B Florida", "experiment": "microbe, parasite or virus in culture", "type": "cell-based"}, "[13]": {"tested_on": "Junin Candid 1", "type": "cell-based, Junin virus"}, "[14]": {"tested_on": "Junin Candid 1", "type": "cell-based, Junin virus", "remark": "listed apart in the source"}, "[15]": {"tested_on": "Measles virus (MV), strain Chicago", "experiment": "Visual CPE Assay", "type": "cell-based", "details": "Vero 76 cells"}, "[16]": {"tested_on": "Measles virus (MV), strain Chicago", "experiment": "Neutral Red Uptake Assay", "type": "cell-based", "details": "Vero 76 cells"}, "[17]": {"tested_on": "Parainfluenza 3 14702", "type": "cell-based, Parainfluenza virus type 3"}, "[18]": {"tested_on": "Parainfluenza 3 14702", "type": "cell-based, Parainfluenza virus type 3", "remark": "listed apart in the source"}, "[19]": {"tested_on": "Pichinde", "type": "cell-based"}, "[20]": {"tested_on": "Pichinde", "type": "cell-based", "remark": "listed apart in the source"}, "[21]": {"tested_on": "Punta Toro A2", "type": "cell-based, Punta Toro virus"}, "[22]": {"tested_on": "Punta Toro A2", "type": "cell-based, Punta Toro virus", "remark": "listed apart in the source"}, "[23]": {"tested_on": "Respiratory Syncytial A2", "type": "cell-based, Respiratory syncytial virus"}, "[24]": {"tested_on": "Respiratory Syncytial A2", "type": "cell-based, Respiratory syncytial virus", "remark": "listed apart in the source"}, "[25]": {"tested_on": "Rhinovirus 2 HGP", "type": "cell-based"}, "[26]": {"tested_on": "Rhinovirus 2 HGP", "type": "cell-based", "remark": "listed apart in the source"}, "[27]": {"tested_on": "Rift Valley Fever MP-12", "type": "cell-based, Rift Valley fever virus"}, "[28]": {"tested_on": "Rift Valley Fever MP-12", "type": "cell-based, Rift Valley fever virus", "remark": "listed apart in the source"}, "[29]": {"tested_on": "SARS-CoV Urbani", "type": "cell-based, SARS corona virus"}, "[30]": {"tested_on": "SARS-CoV Urbani", "type": "cell-based, SARS corona virus", "remark": "listed apart in the source"}, "[31]": {"tested_on": "Tacaribe TRVL 11573", "type": "cell-based"}, "[32]": {"tested_on": "Tacaribe TRVL 11573", "type": "cell-based", "remark": "listed apart in the source"}, "[33]": {"tested_on": "Venezuelan Equine Encephalitis TC83", "type": "cell-based, Venezuelan equine encephalitis virus"}, "[34]": {"tested_on": "Venezuelan Equine Encephalitis TC83", "type": "cell-based, Venezuelan equine encephalitis virus", "remark": "listed apart in the source"}, "[35]": {"tested_on": "West Nile", "type": "cell-based, West Nile virus"}, "[36]": {"tested_on": "West Nile", "type": "cell-based, West Nile virus", "remark": "listed apart in the source"}, "[37]": {"tested_on": "Yellow Fever 17D", "type": "cell-based, Yellow fever virus"}, "[38]": {"tested_on": "Yellow Fever 17D", "type": "cell-based, Yellow fever virus", "remark": "listed apart in the source"}, "[39]": {"tested_on": "Measles virus (MV), strain Chicago", "experiment": "Virus Yield Reduction Assay", "type": "cell-based", "details": "Vero-76 cells, one log 10 drop in virus produced"}, "[40]": {"tested_on": "Marburg, Junin Candid 1, Pichinde, Chikungunya 181/25 and Vaccinia NYCBH", "experiment": "organism not typed", "type": "cell-based", "details": "read-out: EC50 values, range over several viruses"}, "[41]": {"tested_on": "H3N2 virus (A/Victoria/3/75)", "parameters": "species or system Balb/C mice", "details": "mouse, in vivo, po"}, "[42]": {"tested_on": "Yellow fever virus (Jimenez strain)", "parameters": "species or system Syrian golden hamsters", "details": "hamster, in vivo"}, "[43]": {"tested_on": "MA-104 cells", "details": "African green monkey"}, "[44]": {"tested_on": "MA-104 cells", "details": "African green monkey", "remark": "listed apart in the source"}, "[45]": {"experiment": "in vitro", "details": "human"}, "[46]": {"experiment": "in vitro", "details": "human", "remark": "listed apart in the source"}, "[47]": {"experiment": "in vitro", "details": "African green monkey, Visual CPE Assay"}, "[48]": {"experiment": "in vitro", "details": "African green monkey"}, "[49]": {"experiment": "in vitro", "details": "human", "remark": "listed apart in the source"}, "[50]": {"experiment": "in vitro", "details": "human", "remark": "listed apart in the source"}}, "data": [{"smiles": "Nc1ncnc2c([C@@H]3N[C@H](CO)[C@@H](O)[C@H]3O)c[nH]c12", "note": "[Compound 1, (2S,3S,4R,5R)-2-(4-Amino-5H-pyrrolo[3,2-d]pyrimidin-7-yl)-5-(hydroxymethyl) pyrrolidine-3,4-diol]", "values": [{"measurement": "SI Visual CPE Assay", "setting": "[1]", "result": ">2.6"}, {"measurement": "SI Neutral Red Uptake Assay", "setting": "[2]", "result": ">2.3"}, {"measurement": "SI Visual CPE Assay", "setting": "[3]", "result": 25}, {"measurement": "SI Neutral Red Uptake Assay", "setting": "[4]", "result": 26}, {"measurement": "SI Visual CPE Assay", "setting": "[5]", "result": 120}, {"measurement": "SI Neutral Red Uptake Assay", "setting": "[6]", "result": 120}, {"measurement": "SI Visual CPE Assay", "setting": "[7]", "result": 140}, {"measurement": "SI Neutral Red Uptake Assay", "setting": "[8]", "result": 79}, {"measurement": "SI Visual CPE Assay", "setting": "[9]", "result": ">1600"}, {"measurement": "SI Neutral Red Uptake Assay", "setting": "[10]", "result": 130}, {"measurement": "SI Visual CPE Assay", "setting": "[11]", "result": 290}, {"measurement": "SI Neutral Red Uptake Assay", "setting": "[12]", "result": 38}, {"measurement": "EC50", "setting": "[12]; Influenza B virus", "result": 1.8, "unit": "µg/mL"}, {"measurement": "SI Visual CPE Assay", "setting": "[13]", "result": ">17"}, {"measurement": "SI Neutral Red Uptake Assay", "setting": "[14]", "result": 14}, {"measurement": "SI Visual CPE Assay", "setting": "[15]", "result": ">180"}, {"measurement": "SI Neutral Red Uptake Assay", "setting": "[16]", "result": ">71"}, {"measurement": "SI Visual CPE Assay", "setting": "[17]", "result": 7.1}, {"measurement": "SI Neutral Red Uptake Assay", "setting": "[18]", "result": 52}, {"measurement": "SI Visual CPE Assay", "setting": "[19]", "result": ">8.2"}, {"measurement": "SI Neutral Red Uptake Assay", "setting": "[20]", "result": 6.7}, {"measurement": "SI Visual CPE Assay", "setting": "[21]", "result": ">1.6"}, {"measurement": "SI Neutral Red Uptake Assay", "setting": "[22]", "result": 0}, {"measurement": "SI Visual CPE Assay", "setting": "[23]", "result": 0}, {"measurement": "SI Neutral Red Uptake Assay", "setting": "[24]", "result": 0}, {"measurement": "SI Visual CPE Assay", "setting": "[25]", "result": ">1.8"}, {"measurement": "SI Neutral Red Uptake Assay", "setting": "[26]", "result": ">1.8"}, {"measurement": "SI Visual CPE Assay", "setting": "[27]", "result": 9.1}, {"measurement": "SI Neutral Red Uptake Assay", "setting": "[28]", "result": 6.6}, {"measurement": "SI Visual CPE Assay", "setting": "[29]", "result": ">7.1"}, {"measurement": "SI Neutral Red Uptake Assay", "setting": "[30]", "result": ">6.3"}, {"measurement": "SI Visual CPE Assay", "setting": "[31]", "result": 4.2}, {"measurement": "SI Neutral Red Uptake Assay", "setting": "[32]", "result": 2}, {"measurement": "SI Visual CPE Assay", "setting": "[33]", "result": 2.2}, {"measurement": "SI Neutral Red Uptake Assay", "setting": "[34]", "result": 1.2}, {"measurement": "SI Visual CPE Assay", "setting": "[35]", "result": 0}, {"measurement": "SI Neutral Red Uptake Assay", "setting": "[36]", "result": 2.8}, {"measurement": "SI Visual CPE Assay", "setting": "[37]", "result": 43}, {"measurement": "SI Neutral Red Uptake Assay", "setting": "[38]", "result": 38}, {"measurement": "EC90 virus yield reduction", "setting": "[39]", "result": 0.37, "unit": "µg/mL"}, {"measurement": "EC50", "setting": "[40]", "result": "≥ 10", "unit": "µg/mL"}, {"measurement": "Mean weight change (grams ± SEM) Day 9", "setting": "[41]", "result": "0.01 ± 0.27", "unit": "grams"}, {"measurement": "weight change", "setting": "[42]", "result": "weight gain over placebo and ribavirin administered pre-infection"}, {"measurement": "IC50 Visual CPE Assay", "setting": "[43]", "result": ">100", "unit": "µg/mL"}, {"measurement": "IC50 Neutral Red Uptake Assay", "setting": "[44]", "result": ">100", "unit": "µg/mL"}, {"measurement": "CC50", "setting": "[45]", "result": "> 100", "unit": "µg/mL"}, {"measurement": "CC50", "setting": "[46]", "result": "> 100", "unit": "µg/mL"}, {"measurement": "CC50", "setting": "[47]", "result": 100, "unit": "µg/mL"}, {"measurement": "CC50", "setting": "[48]", "result": 52, "unit": "µg/mL"}, {"measurement": "CC50", "setting": "[49]", "result": "> 100", "unit": "µg/mL"}, {"measurement": "CC50", "setting": "[50]", "result": "> 100", "unit": "µg/mL"}]}]}
